“Also recorded” adds a separate entry of the source.
Legend:
Assay in all cases: Qualitative dye staining on agarose pads (EVOS M7000)
Assay type in all cases: cell-based
Design in all cases: key to Relative fluorescent intensity: Very high: If the cells looked twice as big in the fluorescent channel, it was marked as having “very high” relative fluorescent intensity; High: if the cells looked bigger in the fluorescent channel, it was marked as having “high” relative fluorescent intensity; Medium: If the cells looked almost the same size in the fluorescent channel and the bright field, it was marked as having “medium” relative fluorescent intensity; Low: If the cells looked smaller in the fluorescent channel as compared to the brightfield but still the whole cell was visible, it was marked as having “low” relative fluorescent intensity; Negligible: If only a few traces of a cell was visible in the fluorescent channel, it was marked as having “negligible” relative fluorescent intensity
Enterococcus faecalis = details: DiSC3(5) 3 μM, SYBR Green I 10×, SYTO 13 3 μM, FM4-64 15 μM
Klebsiella = details: Table 6 thresholds, DiSC3(5) 3 μM, SYBR Green I 10×, SYTO 13 3 μM, FM4-64 15 μM
Pseudomonas aeruginosa = details: DiSC3(5) 3 μM, SYBR Green I 10×, SYTO 13 3 μM, FM4-64 15 μM
[1] = Table 7 commercial strain Enterococcus faecalis NCTCT 12697
[2] = Table 8 sample Enterococcus faecalis (001)
[3] = Table 8 sample Enterococcus faecalis (002)
[4] = Table 8 sample Enterococcus faecalis (003)
[5] = Table 6 thresholds, Pseudomonas aeruginosa
[6] = Table 7 commercial strain Pseudomonas aeruginosa NCTC 10332
[7] = Table 7 commercial strain Pseudomonas aeruginosa NCTC 13715
[8] = Table 8 sample Pseudomonas aeruginosa (031)
[9] = Table 8 sample Pseudomonas aeruginosa (032)
[10] = Table 8 sample Pseudomonas aeruginosa (033)

Row | SMILES | Percentage of cells stained (Enterococcus faecalis; [1]) | Relative fluorescent intensity (Enterococcus faecalis; [1]) | Percentage of cells stained (Enterococcus faecalis; [2]) | Relative fluorescent intensity (Enterococcus faecalis; [2]) | Percentage of cells stained (Enterococcus faecalis; [3]) | Relative fluorescent intensity (Enterococcus faecalis; [3]) | Percentage of cells stained (Enterococcus faecalis; [4]) | Relative fluorescent intensity (Enterococcus faecalis; [4]) | Percentage of cells stained (Klebsiella) | Relative fluorescent intensity (Klebsiella) | Percentage of cells stained (Pseudomonas aeruginosa; [5]) | Relative fluorescent intensity (Pseudomonas aeruginosa; [5]) | Percentage of cells stained (Pseudomonas aeruginosa; [6]) | Relative fluorescent intensity (Pseudomonas aeruginosa; [6]) | Percentage of cells stained (Pseudomonas aeruginosa; [7]) | Relative fluorescent intensity (Pseudomonas aeruginosa; [7]) | Percentage of cells stained (Pseudomonas aeruginosa; [8]) | Relative fluorescent intensity (Pseudomonas aeruginosa; [8]) | Percentage of cells stained (Pseudomonas aeruginosa; [9]) | Relative fluorescent intensity (Pseudomonas aeruginosa; [9]) | also measured
1 | CCCN(CCCN(C)C)c1cc(/C=C2/Sc3ccccc3N2C)c2ccccc2[n+]1-c1ccccc1 [SYBR Green I, N′,N′-dimethyl-N-[4-[(E)-(3-methyl-1,3-benzothiazol-2-ylidene)methyl]-1-phenylquinolin-1-ium-2-yl]-N-propylpropane-1,3-diamine] | Almost all | Medium | Almost all | Medium | Almost all | Medium | Almost all | Medium | Few | Low | Almost all | Low | Almost all | Low | Almost all | Low | Almost all | Low | Almost all | Low | Percentage of cells stained (Pseudomonas aeruginosa; [10]): Almost all; Relative fluorescent intensity (Pseudomonas aeruginosa; [10]): Low
2 | CCCN1C(=CC=CC=Cc2sc3ccccc3[n+]2CCC)Sc2ccccc21.[I-] [DiSC3(5), 3,3′-Dipropylthiadicarbocyanine Iodide] | Half | Low | Half | Low | Half | Low | Half | Low | Few | Low-Medium | Few | no or negligible staining; also recorded: Negligible | Few | Negligible | Few | Negligible | Few | Negligible | Few | Negligible | Percentage of cells stained (Pseudomonas aeruginosa; [10]): Few; Relative fluorescent intensity (Pseudomonas aeruginosa; [10]): Negligible
3 | CCN(CC)c1ccc(C=CC=CC=Cc2cc[n+](CCC[N+](CC)(CC)CC)cc2)cc1.[Br-].[Br-] [FM 4-64, N-(3-Triethylammoniumpropyl)-4-(6-(4-(Diethylamino) Phenyl) Hexatrienyl) Pyridinium Dibromide] | Almost all | Medium | Almost all | Medium | Almost all | Medium | Almost all | Medium | Few | Low | Almost all | Low | Almost all | Negligible | Almost all | Low | Almost all | Low | Almost all | Low | Percentage of cells stained (Pseudomonas aeruginosa; [10]): Almost all; Relative fluorescent intensity (Pseudomonas aeruginosa; [10]): Low

From patent US20250052744A1, “Dyes and Uses Thereof” (The University of Liverpool, priority 2021, published 2025)
